This note sets out measurements from article PMC11359702, “Synthesis and Biochemical Evaluation of Ethanoanthracenes and Related Compounds: Antiproliferative and Pro-Apoptotic Effects in Chronic Lymphocytic Leukemia (CLL)” (Pharmaceuticals, 2024).

In general, cell viability refers to a per cent measure of how many cells are alive, often set against a control. By IC50 is commonly meant the concentration at which inhibition is half-maximal. By viability is commonly meant a read-out of living cells in per cent, often relative to untreated cells.

For data set [1], the system named is PGA-1 cells. Particulars: 10 µM.
Data set [2] relates to HG-3 cells. Particulars: 10 µM.
Data set [3] has as its system PGA-1 cells. As to the kind of experiment: alamarBlue cell viability assay. Particulars: for IC50: read-out: PGA-1 IC50; for viability at 10 µM: read-out: cell viability. On the technique in general: The colour change of resazurin is a common sign of viable cells or microbes.
In data set [4] the test system is HG-3 cells. Kind of data set: alamarBlue cell viability assay. Particulars: for IC50: read-out: HG-3 IC50; for IC50 / viability at 10 µM: HG-3, 24 h; for viability at 10 µM: read-out: cell viability, HG-3, 10 µM, 24 h, vehicle = 100%.
The subject of data set [5] is HG-3 and PGA-1 cell lines. Kind of data set: alamarBlue cell viability assay, mean of both CLL cell lines. It is filed as cell-based, human. Particulars: mean of HG-3 and PGA-1.

Read-outs that look alike come from different tables or passages of the source.

In the data set with PGA-1 cells [1], `O=C(C=CC12c3ccccc3C(c3ccccc31)C1C(=O)N(c3ccc(Cl)cc3)C(=O)C12)c1ccc(I)cc1` (stereo not drawn) [Compound 25g, (E)-13-(4-Chlorophenyl)-9-(3-(4-iodophenyl)-3-oxoprop-1-en-1-yl)-9,10-dihydro-9,10-[3,4]epipyrroloanthracene-12,14-dione] gave a cell viability of 33%.
For the compound `O=C(C=CC12c3ccccc3C(c3ccccc31)C1C(=O)N(c3ccccc3)C(=O)C12)c1ccco1` (stereo not drawn) [Compound 24o, 9-(E)-3-(Furan-2-yl)-3-oxoprop-1-en-1-yl)-13-phenyl-9,10-dihydro-9,10-[3,4]epipyrroloanthracene-12,14-dione], the cell viability with PGA-1 cells [1] was found to be 9%; with HG-3 cells [2] it was 3%.
For `O=C(/C=C/C12c3ccccc3C(c3ccccc31)C1C(=O)N(c3ccc(C(=O)c4ccccc4)cc3)C(=O)C12)c1ccncc1` (stereo not drawn) [Compound 26m, (E)-13-(4-Benzoylphenyl)-9-(3-oxo-3-(pyridin-4-yl)prop-1-en-1-yl)-9,10-dihydro-9,10-[3,4]epipyrroloanthracene-12,14-dione], the “decrease in cell viability compared to 26f” value in the data set on PGA-1 cells [3] (PGA-1, 1 µM) is listed as 64%; in the data set on HG-3 cells [4] (HG-3, 1 µM), 64%; in the data set on HG-3 cells [4] (HG-3, 10 µM), 59%. The cell viability in the data set on PGA-1 cells [1] is given as 17%; in the data set on HG-3 cells [2], 27%.
As for `O=C(C=CC12c3ccccc3C(c3ccccc31)C1C(=O)N(c3ccc(Cl)cc3)C(=O)C12)c1ccco1` (stereo not drawn) [Compound 25o, (E)-13-(4-Chlorophenyl)-9-(3-(furan-2-yl)-3-oxoprop-1-en-1-yl)-9,10-dihydro-9,10-[3,4]epipyrroloanthracene-12,14-dione], the cell viability came out at 14% in the data set on PGA-1 cells [1] and 5% in the data set with HG-3 cells [2].
The matching figures for “(E)-13-(4-Chlorophenyl)-9-(3-(4-nitrophenyl)-3-oxoprop-1-en-1-yl)-9,10-dihydro-9,10-[3,4]epipyrroloanthracene-12,14-dione [Compound 25b]”: 34% and 35%.
Taken in the same sequence, the figures for “(E)-13-(4-Chlorophenyl)-9-(3-oxo-3-(pyridin-4-yl)prop-1-en-1-yl)-9,10-dihydro-9,10-[3,4]epipyrroloanthracene-12,14-dione [Compound 25m]” were 28% and 8%.
Taken in the same sequence, the figures for `O=C(c1ccccc1)c1ccc(N2C(=O)C3C4c5ccccc5C(C=CC(=O)c5ccco5)(c5ccccc54)C3C2=O)cc1` (stereo not drawn) [Compound 26o, (E)-13-(4-Benzoylphenyl)-9-(3-(furan-2-yl)-3-oxoprop-1-en-1-yl)-9,10-dihydro-9,10-[3,4]epipyrroloanthracene-12,14-dione] were 9% and 15%.
Compound `O=C(C=CC12c3ccccc3C(c3ccccc31)C1C(=O)N(c3ccc(Cl)cc3)C(=O)C12)c1ccc(Br)cc1` (stereo not drawn) [Compound 25a, (E)-9-(3-(4-Bromophenyl)-3-oxoprop-1-en-1-yl)-13-(4-chlorophenyl)-9,10-dihydro-9,10-[3,4]epipyrroloanthracene-12,14-dione] showed a cell viability in the data set with PGA-1 cells [1] of 33%.
As for `COc1cc(C(=O)/C=C/C23c4ccccc4C(c4ccccc42)C2C(=O)NC(=O)C23)cc(OC)c1OC` (stereo not drawn) [Compound 23k, (E)-9-(3-Oxo-3-(3,4,5-trimethoxyphenyl)prop-1-en-1-yl)-9,10-dihydro-9,10-[3,4] epipyrroloanthracene-12,14-dione], the IC50 in the data set on PGA-1 cells [3] (PGA-1, 24 h) stood at 5.38 µM; in data set [5], 5.19 µM; in the data set on HG-3 cells [4] it was 4.9 µM.
`O=C(C=CC12c3ccccc3C(c3ccccc31)C1C(=O)N(c3ccc(Cl)cc3)C(=O)C12)c1ccc(Cl)cc1` (stereo not drawn) [Compound 25l, (E)-13-(4-Chlorophenyl)-9-(3-(4-chlorophenyl)-3-oxoprop-1-en-1-yl)-9,10-dihydro-9,10-[3,4]epipyrroloanthracene-12,14-dione]: in the data set with PGA-1 cells [1], the cell viability was 24%.
Turning to `O=C(C=CC12c3ccccc3C(c3ccccc31)C1C(=O)N(c3ccccc3)C(=O)C12)c1ccc([N+](=O)[O-])cc1` (stereo not drawn) [Compound 24b, 9-(E)-3-(4-Nitrophenyl)-3-oxoprop-1-en-1-yl)-13-phenyl-9,10-dihydro-9,10-[3,4]epipyrroloanthracene-12,14-dione], the cell viability with PGA-1 cells [1] is reported as 22%; with HG-3 cells [2] it was 10%.
Consider `O=C(c1ccccc1)c1ccc(N2C(=O)C3C4c5ccccc5C(/C=C/[N+](=O)[O-])(c5ccccc54)C3C2=O)cc1` (stereo not drawn) [Compound 20c], for which the IC50 in the data set on PGA-1 cells [3] (Homo sapiens, 24 h) amounted to 0.88 µM; in data set [5] (Homo sapiens, CLL cell) it was 0.8 µM; with HG-3 cells [4] (Homo sapiens) it was 0.71 µM. Moreover, the viability at 10 µM is 4% with PGA-1 cells [3] (Homo sapiens, 24 h) and 11% in the data set on HG-3 cells [4] (Homo sapiens).
With `O=C1C2C3c4ccccc4C(C=C[N+](=O)[O-])(c4ccccc43)C2C(=O)N1c1ccc(Cl)cc1` (stereo not drawn) [Compound 20b], the IC50 with PGA-1 cells [3] (Homo sapiens, 24 h) was 0.66 µM; in data set [5] (Homo sapiens, CLL cell), 0.76 µM; in the data set with HG-3 cells [4] (Homo sapiens) it was 0.85 µM. The viability at 10 µM in the data set with PGA-1 cells [3] (Homo sapiens, 24 h) came to 3%; in the data set with HG-3 cells [4] (Homo sapiens), 8%.
